{
  "source": "ChEMBL document CHEMBL1649459",
  "about": "“Analysis of cell membrane characteristics of in vitro-selected daptomycin-resistant strains of methicillin-resistant Staphylococcus aureus” (2009)",
  "type_in_all_cases": "functional",
  "key": {"Staphylococcus aureus [1]": {"test_system": "Staphylococcus aureus", "assay": "Antimicrobial activity against methicillin-resistant Staphylococcus aureus MW2 CB2201 after 1-day passage containing sublethal concentration of compound by Etest method", "conditions": "MW2 CB2201, 24 h"}, "Staphylococcus aureus [2]": {"test_system": "Staphylococcus aureus", "assay": "Antimicrobial activity against methicillin-resistant Staphylococcus aureus MW2 CB1118 by Etest method"}, "Staphylococcus aureus [3]": {"test_system": "Staphylococcus aureus", "assay": "Antimicrobial activity against methicillin-resistant Staphylococcus aureus MW2 CB2205 harboring […] MprF T345I, RpoB I953S,YycG S221P mutant after 20-day passage containing sublethal concentration of compound by Etest method", "conditions": "MW2 CB2205, 480 h"}, "Staphylococcus aureus [4]": {"test_system": "Staphylococcus aureus", "assay": "Antimicrobial activity against methicillin-resistant Staphylococcus aureus MW2 CB2202 harboring […] MprF T345I mutant after 5-day passage containing sublethal concentration of compound by Etest method", "conditions": "MW2 CB2202, 120 h"}, "Staphylococcus aureus [5]": {"test_system": "Staphylococcus aureus", "assay": "Antimicrobial activity against methicillin-resistant Staphylococcus aureus MW2 CB2203 harboring […] MprF T345I, RpoB I953S mutant after 14-day passage containing sublethal concentration of compound by Etest method", "conditions": "MW2 CB2203, 336 h"}},
  "data": [
    {"compound": "CCCCCCCCCC(=O)N[C@@H](Cc1c[nH]c2ccccc12)C(=O)N[C@H](CC(N)=O)C(=O)N[C@@H](CC(=O)O)C(=O)N[C@@H]1C(=O)NCC(=O)N[C@@H](CCCN)C(=O)N[C@@H](CC(=O)O)C(=O)N[C@H](C)C(=O)N[C@@H](CC(=O)O)C(=O)NCC(=O)N[C@H](CO)C(=O)N[C@@H]([C@H](C)CC(=O)O)C(=O)N[C@@H](CC(=O)c2ccccc2N)C(=O)O[C@@H]1C", "values": [
      {"measurement": "MIC", "setting": "Staphylococcus aureus [1]", "value": 1.5, "unit": "µg/mL"},
      {"measurement": "MIC", "setting": "Staphylococcus aureus [2]", "value": 1, "unit": "µg/mL"},
      {"measurement": "MIC", "setting": "Staphylococcus aureus [3]", "value": 12, "unit": "µg/mL"},
      {"measurement": "MIC", "setting": "Staphylococcus aureus [4]", "value": 3, "unit": "µg/mL"},
      {"measurement": "MIC", "setting": "Staphylococcus aureus [5]", "value": 6, "unit": "µg/mL"}
    ]}
  ]
}
